Data from paper PMC8948939 (Pharmaceutics, 2022).

Key:
CYP2C9 [1] = target: T1, CYP2C9 (Homo sapiens, UniProt P11712); test: in vitro; conditions: microsomes, pH 7.5
Experimental: (§1) Supplementary Section S1. Marker reactions for CYP2C19, CYP2C9 and CYP3A4 […]
(§2) for CYP3A4 [1,2] were used to determine (i) intersystem extrapolation factors (ISEF), (ii) […]
(§3) (i) Experiments for the determination of Michaelis-Menten kinetics in HLM were performed at protein concentrations of 0.02, 0.04 and 0.05 mg/mL for the marker reactions of CYP2C19, CYP2C9 and CYP3A4 (n = 3 each), respectively. Two samples were taken from each incubation after 15 and 25 min for investigations on CYP2C19, after 5 and 10 min for CYP2C9 and after 7 and 12 min for CYP3A4, respectively. […]
(§4) were applied as substrate concentrations. […]

[2] = target: CYP2C9 in human liver microsomes (HLM) (Homo sapiens, UniProt P11712); test: in vitro; conditions: pH 7.5
Experimental: as §1, §2, §3, §4

CYP2C9 [3] = target: T1, CYP2C9; conditions: recombinant enzyme, pH 7.5
Experimental: as §1, §2, §3
(§5) were applied as substrate concentrations.
(§6) For investigations in rhCYP concentrations of 2.5 pmol/mL rhCYP2C19 (n = 3), […]
(§7) respectively. […]

[4] = target: T2, CYP3A4 in human liver microsomes (HLM) (Homo sapiens, UniProt P08684); test: Michaelis-Menten kinetics of midazolam 1-hydroxylation (CYP3A4 marker reaction) in HLM; type: in vitro ADME; conditions: midazolam 1-hydroxylation; HLM
T2 construct: tissue Corning Inc; host or cells: pooled human liver microsomes (150 donors)
Text: (§8) Towards the Elucidation of the Pharmacokinetics of
(§9) Josefine Schulz 1, Antonia Thomas 1, Ayatallah Saleh 1,2, Gerd Mikus 1,3, Charlotte Kloft 1,† and Robin Michelet 1,*,† 1 Department of Clinical Pharmacy & Biochemistry, Institute of Pharmacy, Freie Universitaet Berlin, Kelchstraße 31, 12169 Berlin, Germany
(§10) 2 Graduate Research Training Program PharMetrX, 12169 Berlin/Potsdam, Germany 3 Department of Clinical Pharmacology and Pharmacoepidemiology, University Hospital Heidelberg, Im Neuenheimer Feld 410, 69120 Heidelberg, Germany
(§11) * Correspondence: robin.michelet@fu-berlin.de; Tel.: +49-30-838-50659
(§12) † These authors contributed equally to this work
as §1, §2, §3, §5, §6, §7

CYP3A4 [5] = target: T3, CYP3A4 (Homo sapiens, UniProt P08684); test: Michaelis-Menten kinetics of midazolam 1-hydroxylation by rhCYP3A4; type: in vitro ADME; parameters: purchased Corning Inc
Text: as §8, §9, §10, §11, §12, §1, §2, §3, §5, §6
Target sequence in this assay (P08684 whole entry): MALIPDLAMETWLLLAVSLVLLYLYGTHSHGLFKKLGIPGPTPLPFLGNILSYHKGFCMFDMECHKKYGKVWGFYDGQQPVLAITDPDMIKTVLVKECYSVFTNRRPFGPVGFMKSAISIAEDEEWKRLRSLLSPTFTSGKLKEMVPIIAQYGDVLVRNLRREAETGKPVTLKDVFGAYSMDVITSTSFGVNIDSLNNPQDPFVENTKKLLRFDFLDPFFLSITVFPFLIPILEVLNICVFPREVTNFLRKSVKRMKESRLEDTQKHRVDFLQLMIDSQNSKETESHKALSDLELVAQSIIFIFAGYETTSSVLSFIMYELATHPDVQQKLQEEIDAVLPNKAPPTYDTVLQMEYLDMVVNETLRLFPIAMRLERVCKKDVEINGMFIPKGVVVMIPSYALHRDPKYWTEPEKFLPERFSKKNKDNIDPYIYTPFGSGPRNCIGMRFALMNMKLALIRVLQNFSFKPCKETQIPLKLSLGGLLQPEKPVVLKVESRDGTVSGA
respectively. Sampling time points were identical to those in HLM as were substrate […]
concentration of 0.2 mg/mL for 15 and 25 min (n = 2). Each probe substrate was incubated in the presence of each inhibitor. […]
were performed at concentrations of 0.2, 0.08 and 0.05 mg/mL HLM for CYP2C19, CYP2C9 and CYP3A4, respectively. IC50 and IC50 shift assays were performed at substrate […]
Reaction times were identical to those described […]

CYP3A4 [6] = target: T3, CYP3A4; test: Michaelis-Menten kinetics of midazolam 1-hydroxylation (CYP3A4 marker reaction) in HLM; type: in vitro ADME; parameters: tissue Corning Inc; host or cells: pooled human liver microsomes (150 donors); conditions: human, human liver microsomes
Text: as §8, §9, §10, §11, §12, §1, §2, §3, §5, §6, §7
Target sequence in this assay (P08684 2-503 limits assumed): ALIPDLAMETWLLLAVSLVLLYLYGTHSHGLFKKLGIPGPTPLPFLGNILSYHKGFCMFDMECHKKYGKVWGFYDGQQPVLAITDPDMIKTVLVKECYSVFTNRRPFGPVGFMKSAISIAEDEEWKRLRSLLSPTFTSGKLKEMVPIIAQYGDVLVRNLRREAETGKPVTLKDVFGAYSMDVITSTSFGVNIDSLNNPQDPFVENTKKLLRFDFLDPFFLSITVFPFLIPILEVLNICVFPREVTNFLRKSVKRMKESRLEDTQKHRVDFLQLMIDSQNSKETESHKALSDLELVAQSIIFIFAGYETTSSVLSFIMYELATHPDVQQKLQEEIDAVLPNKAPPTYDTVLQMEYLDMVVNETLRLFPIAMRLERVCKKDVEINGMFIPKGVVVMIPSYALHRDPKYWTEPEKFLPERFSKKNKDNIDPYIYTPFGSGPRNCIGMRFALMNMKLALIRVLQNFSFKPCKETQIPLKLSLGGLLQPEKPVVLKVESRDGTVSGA

[7] = midazolam 1-hydroxylation, rhCYP3A4

T1 sequence (P11712 whole entry): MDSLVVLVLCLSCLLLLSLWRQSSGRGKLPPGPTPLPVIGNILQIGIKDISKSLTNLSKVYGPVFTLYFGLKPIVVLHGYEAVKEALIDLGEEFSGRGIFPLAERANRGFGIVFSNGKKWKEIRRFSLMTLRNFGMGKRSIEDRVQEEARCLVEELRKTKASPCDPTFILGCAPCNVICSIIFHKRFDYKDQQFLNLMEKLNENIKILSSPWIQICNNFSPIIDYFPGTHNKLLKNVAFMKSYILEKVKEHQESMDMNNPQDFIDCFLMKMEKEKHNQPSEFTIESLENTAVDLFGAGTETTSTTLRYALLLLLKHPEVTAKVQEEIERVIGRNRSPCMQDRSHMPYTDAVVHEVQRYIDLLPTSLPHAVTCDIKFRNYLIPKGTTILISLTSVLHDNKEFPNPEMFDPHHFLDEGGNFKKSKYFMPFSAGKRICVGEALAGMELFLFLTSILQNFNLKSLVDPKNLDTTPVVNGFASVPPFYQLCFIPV
T2 sequence (P08684 2-503 limits assumed): as the sequence (P08684 2-503 limits assumed) above
Chain of CYP2C9 in human liver microsomes (HLM) (P11712 whole entry): as the sequence (P11712 whole entry) above

O=C(O)Cc1ccccc1Nc1c(Cl)cccc1Cl [Diclofenac, diclofenac]
microsomal CLint (CYP2C9 [1]): 408 µL/min/mg
Vmax,HLM (95% CI) [2]: 1693 pmol/min/mg
CLint, rhCYP (CYP2C9 [3]): 5.89 µL/min/pmol

Cc1ncc2n1-c1ccc(Cl)cc1C(c1ccccc1F)=NC2 [Midazolam, midazolam]
Vmax,HLM (95% CI) [4]: 559 pmol/min/mg
Km (CYP3A4 [5]; human, recombinant human CYP3A4 (rhCYP3A4)): 1.96 µM
CLint, rhCYP (CYP3A4 [5]; [7]): 0.850 µL/min/pmol
Vmax,rhCYP (95% CI) (CYP3A4 [5]; [7]): 1.67 pmol/min∙pmol
Km (CYP3A4 [6]): 4.45 µM
microsomal CLint (CYP3A4 [6]; pH 7.5, midazolam 1-hydroxylation, HLM): 126 µL/min/mg
